Test results published in the METLIN SMRT retention time set (Domingo-Almenara et al. 2019).

Assay: gradient 5% acetonitrile 3 min, to 50% in 2 min, to 85% in 15 min, held 3 min, 100 µL/min
Conditions: column: Zorbax Extend-C18 2.1 x 50 mm; eluents: water / acetonitrile, 0.1% formic acid
Summary of the method: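 Pure standards were run in mixtures of ~100 molecules by HPLC coupled to a quadrupole time-of-flight mass spectrometer. The column was a Zorbax Extend-C18 (2.1 × 50 mm, 1.8 μm) at 100 μL/min, with water and acetonitrile each containing 0.1% formic acid, in positive and negative ionization mode. Dead and dwell volumes were 40 μL and 900 μL. Retention time was taken from computationally picked adduct peaks, each manually inspected, with data collected over 3 months.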

SMILES	RP-LC retention time
CCCNC(=O)C1CCCN(c2nc3ncn(CC(=O)Nc4cc(F)ccc4F)c(=O)c3s2)C1 (centres undefined)	716 s
CCCc1ccc(S(=O)(=O)N2CCc3c(c(-c4nnc(-c5ccc(C)cc5)o4)nn3C)C2)cc1	1160 s
O=c1c2sccc2n(Cc2nc(-c3ccc(F)cc3)no2)c(=O)n1Cc1ccc(F)cc1	1100 s
CCCCNc1cc(C)nc2nc(-c3ccc(C(C)(C)C)cc3)nn12	1100 s
CCCn1nnc(NCc2ccc(-c3ccc(C)c(Cl)c3)o2)n1	1130 s
COc1ccc(Nc2nc(N3CCN(c4ccc(F)cc4)CC3)nc3n[nH]nc23)cc1	840 s
Cc1oc(-c2ccccc2)nc1Cc1noc(Cc2c[nH]c3ccccc23)n1	1010 s
CCOC(=O)c1c(C)[nH]c(CCC(=O)NCCN(C)C)c1C	591 s
CCC1=NS(=O)(=O)c2cccnc2N1c1ccc(F)c(C)c1	897 s
Cc1ccc(-c2nc3ncccn3c2NCc2ccc(F)cc2)cc1C	789 s
Cn1cc2c(n1)c(=O)n(Cc1ccc(F)cc1)c(=O)n2CC(=O)Nc1cc(F)ccc1F	841 s
COc1ccc(OC)c(NC(=O)CN2CC=C(c3cnn(C)c3)CC2)c1	597 s
COCCN1C(=O)[C@H]2CN(Cc3cc(Cl)ccc3F)C[C@H]2C1=O	696 s
Cc1cc(C)cc(Nc2cc(C)n3c(=O)n(Cc4cc(=O)n5ccccc5n4)nc3n2)c1	993 s
Cc1ccc(NC(=O)Nc2nccn(-c3ccc(Br)cc3)c2=O)cc1C	1100 s
CCOc1ncccc1CNC(=O)c1sccc1C	822 s
Cn1c(=O)n(C)c2cc(CNc3ccc4c(c3)OCO4)ccc21	630 s
CCN1C(=O)c2cc(S(=O)(=O)NCc3cccc(C)c3)ccc2Oc2cccnc21	1030 s
CCCN1CCN(C(=O)C2CCN(S(=O)(=O)c3ccc4c(c3)sc(=O)n4CCC)CC2)CC1	658 s
CNC(=O)c1cn(-c2ccc(-c3nc(C(C)(C)C)no3)cn2)cn1	806 s

SMILES	RP-LC retention time
CCC(CC)N1CCN(S(=O)(=O)c2cc(-c3[nH]ncc3C(=O)N(C)C)oc2C)CC1	577 s
CN(C)c1ccc(-c2nc3ncccn3c2Nc2cccc(C(F)(F)F)c2)cc1	765 s
NC(=O)c1cc2c(s1)N(CC1CC1)CCCC2	827 s
O=C([C@@H]1C[C@H](F)CN1S(=O)(=O)c1ccc(F)c(F)c1)N1CCCCC1	780 s
COc1cc(OC)cc(-c2noc(-c3nn(-c4ccc(Cl)cc4)ccc3=O)n2)c1	973 s
CCOCCOC(=O)C1=C(C)NC2=C(C(=O)CCC2)C1c1cccc(OC)c1OC (centres undefined)	732 s
NS(=O)(=O)c1ccc(CCNCc2ccc(-c3cc(Cl)ccc3Cl)o2)cc1	712 s
Cc1ccc(-c2c(C(F)(F)F)nn3c(N4CCN(c5ccccn5)CC4)cc(C)nc23)cc1	910 s
CC(C)(C)c1cc(N)n(C2CCS(=O)(=O)C2)n1 (centres undefined)	623 s
CNC(=O)OCN1C(=O)C2CC=CCC2C1=O (centres undefined)	677 s
Cc1cc(NC(=O)c2cc(-c3cccs3)[nH]n2)sn1	672 s
COc1ccccc1Nc1c(-c2ccc(N(C)C)cc2)nc2cnccn12	833 s
CCOc1ccccc1OCc1nn2c(-c3ccoc3C)nnc2s1	970 s
CCOC(=O)c1c(C)c(C(=O)CN(CC2CCCO2)C(=O)c2ccc(Cl)cc2)c(C)n1C (centres undefined)	987 s
O=C(c1nc(-c2ccnc(N3CCCCC3)c2)no1)N1CCN(C2CCCCC2)CC1	609 s
CCn1c(CCNC(=O)c2ccc(F)cc2F)nc2cccnc21	641 s
Cc1cc(C)cc(NS(=O)(=O)c2cc3n(c2)CCCNC3=O)c1	678 s
CCCN1C(=O)c2cc(S(=O)(=O)NCc3ccc(C)o3)ccc2Oc2cccnc21	995 s
CCSc1nnc(-c2nn(C)c3c2CN(C(=O)c2ccc(C)cc2)CC3)n1C	770 s
COc1cccc2cc(C(=O)NCCn3nc(C)cc3C)oc12	674 s

Continued, values first:

RP-LC retention time	SMILES
1090 s	CN(C(=O)CSc1nnc(-c2ccc(Cl)cc2)o1)C1CCCCC1
711 s	O=C(c1ccco1)N1CCN(C(=O)c2cccn2CC(=O)N2CCc3ccccc32)CC1
833 s	Cc1cccc(C#Cc2ccccc2)n1
1120 s	COc1ccc(N2CCN(C(=O)c3cc4c(-c5cccs5)nn(-c5ccccc5)c4n3C)CC2)cc1
671 s	COC(=O)Cn1c(-c2ccccc2)cnc1SCC(=O)Nc1nccs1
1150 s	COc1ccc(S(=O)(=O)N2CCC(c3noc(-c4ccc(C)cc4)n3)CC2)cc1
595 s	Cc1cc(C(=O)Nc2nc3c(s2)CN(C(=O)c2cccn(C)c2=O)CC3)no1
750 s	CCOc1ccc(NC(=O)C2CC(=O)N(c3ccc4c(c3)CCN4C(C)=O)C2)cc1 (centres undefined)
673 s	C=CCn1c(C)c(CC(=O)NCCOC)c(=O)n2nc(-c3ccccc3)nc12
628 s	CCc1noc(NC(C)=O)c1-c1ccc(OC)c(S(=O)(=O)N2CCc3ccccc3C2)c1
1050 s	O=C(Cn1cccc1-c1nnc(-c2ccccc2)o1)Nc1cccc(Cl)c1
1220 s	CCCCn1cc(S(=O)(=O)N2CCN(c3cccc(C)c3)CC2)c2cccnc21
1140 s	Cc1ccc(Sc2nccnc2N2CCCC(C(=O)Nc3ccc(F)cc3C)C2)cc1 (centres undefined)
696 s	Clc1ccccc1-c1nc(N2CCCC2)c2ccccc2n1
758 s	CC(=O)N1CCC(C(=O)Nc2ccc(OCc3nnc(-c4ccc(Cl)cc4)o3)cc2)CC1
690 s	CCOc1ccc(NC(=O)N2CCC(c3cc(N)on3)CC2)cc1
951 s	CCOc1ccc(S(=O)(=O)N2CCC(C(=O)N3CCCCCC3)CC2)cc1C
893 s	COc1ccc(S(=O)(=O)N2C[C@H]3CN(S(=O)(=O)c4ccccc4)C[C@@H](C2)O3)cc1
710 s	COc1ccc(CNC(=O)C2CCCN(c3cnc4nc(C)c(C)nc4c3)C2)cc1 (centres undefined)
673 s	CN1C(=O)c2cccn2CC1C(=O)Nc1ccccc1F (centres undefined)
970 s	COc1ccc(-n2cc(C(=O)OCc3ccco3)c3ccccc3c2=O)cc1
789 s	CCCCCOc1ccc(Nc2nc(C(=O)OCC)nc3ccccc23)cc1
684 s	O=C(Cn1cnc(-c2ccc(F)cc2)cc1=O)NCc1ccco1
810 s	COc1ccc(CNC(=O)C2CCN(S(C)(=O)=O)c3ccccc3O2)cc1 (centres undefined)
1010 s	CC(Oc1cccc(Cl)c1)c1nc(-c2ccc3c(c2)nnn3CCC(=O)N2CCCC2)no1 (centres undefined)

RP-LC retention time	SMILES
1160 s	COc1ccccc1C(=O)N1CC(Oc2ccc(-c3nc(-c4ccccc4)no3)cc2)C1
689 s	CC(=O)c1ccc(NC(=O)Cn2c(-c3cccnc3)nc3ccccc32)cc1
915 s	Cc1cccc(Cn2nc3ccc(S(=O)(=O)N4CCCCC4)cn3c2=O)c1
862 s	CC(C)NC(=O)c1ccc(OCC2CCN(C(=O)c3c(F)cccc3F)CC2)cc1
562 s	CN1CCN(c2ncc(C(=O)O)c(-c3ccccc3)n2)CC1
706 s	CCOc1ccc(CC(=O)N2CC(=O)Nc3ccccc32)cc1
659 s	CCOC(=O)C1=C(CN(C)Cc2ccccc2)NC(=O)NC1c1cccc(OC)c1OC (centres undefined)
703 s	CC(C)NC(=O)C1CCN(c2nc3ccc(-c4cncnc4)nc3s2)CC1
805 s	O=C(NCc1ccc2c(c1)OCO2)C1=C2CCCN2c2ccccc2S1(=O)=O
844 s	CC(C)Oc1ccc(CNC(=O)C2CCCN(c3nn4c(=O)c5c(nc4s3)CCCC5)C2)cc1 (centres undefined)
556 s	O=C(Cc1cccs1)NCCCN1CCOC(c2ccccc2)C1 (centres undefined)
880 s	CCOc1ccc(CNC(=O)C2CCN(S(=O)(=O)c3ccc4c(c3)NC(=O)CO4)CC2)cc1
755 s	Cc1cc2c(N3CCCC(C(=O)N4CCN(c5ccccc5F)CC4)C3)nccc2s1 (centres undefined)
745 s	O=S(=O)(Cc1ccccc1)N1CCN(Cc2cccc(F)c2)C2(CCOCC2)C1
794 s	O=C(NCc1ccccc1)c1ccc2c(c1)CCN2C(=O)C1CC1
754 s	COc1ccc(C(=O)NC2CCN(c3cc(-c4ccc(Cl)cc4)[nH]n3)C2)c(OC)c1 (centres undefined)
557 s	Cc1cc(C(=O)NCC(c2cn(C)c3ccccc23)N(C)C)no1 (centres undefined)
616 s	O=C(c1cc2cc(Br)ccc2oc1=O)N1CCN(c2ccccn2)CC1
692 s	CCCNC(=O)C1CCCN(c2nc3ncn(CC(=O)Nc4ccc(F)cc4)c(=O)c3s2)C1 (centres undefined)
831 s	CCC(=O)N1CCc2c(C(=O)NC3CCCCC3)cccc21
1140 s	CCOC(=O)c1nc(N2CCN(c3cc(Cl)ccc3C)CC2)c2ccccc2n1
972 s	CC1Cc2ccccc2N1C(=O)c1ccc(Cl)cc1 (centres undefined)
882 s	CCCS(=O)(=O)N1CCCc2ccc(NC(=O)NC3CCCCC3)cc21
859 s	CCN1C(=O)c2cccnc2Sc2cc(NC(=O)c3ccc(C)cc3)ccc21
